Data set [1] concerns mouse peritoneal macrophages. The settings on record: 3-h incubation; data not shown. The procedure: A total of 5×10^4 mouse peritoneal macrophages was plated into 96-well tissue culture plates, incubated overnight, and treated with peptides for 3 h. After the treatment, cells were incubated with MTT at 0.5 mg/ml (Sigma-Aldrich) for 3 h. Fifty microliters DMSO was added to cells before reading OD at 540 nm.

Data set [2] deals with TLR4. Kind of data set: LPS-induced cytokine mRNA expression in mouse macrophages (real-time RT-PCR). In kind it is cell-based. The procedure:
(§1) C57BL/6J mice were obtained from The Jackson Laboratory (Bar Harbor, Me.). Primary peritoneal macrophages were obtained by peritoneal lavage 4 days after intraperitoneal injection (3 ml) of sterile 3% thioglycolate broth. Washed cells were resuspended in RPMI 1640 which contained 2% FBS, 1% penicillin:streptomycin and 2 mM L-glutamine. After plating, cells were incubated overnight at 37° C. and then washed with PBS to remove non-adherent cells. Cells were exposed to peptides 30 min before stimulation with a TLR agonist.
Total cellular RNA was isolated using Tripure from Roche (San Francisco, Calif.) following manufacture's protocol. RNA was then reverse transcribed using AMV Reverse Transcriptase from Promega (Madison, Wis.) with poly-T priming as per manufacturer's directions. cDNA was then quantified by real-time PCR using Applied Biosystems Fast SYBR Green PCR Master Mix and an ABI Prism 7500HT cycler. Primers used for detection: hypoxanthine phosphoribosyltransferase (HPRT) (forward: […] (SEQ ID NO:51), reverse: […] (SEQ ID NO:52)), TNFα (forward: […] (SEQ ID NO:53), reverse: […] (SEQ ID NO:54)), IL-1β (forward: […] (SEQ ID NO:55), reverse: […] (SEQ ID NO:56)), IFNβ (forward: […] (SEQ ID NO:57), reverse: CTCGGACCACCATCCAGG (SEQ ID NO:58)) and RANTES (forward: […] (SEQ ID NO:59), reverse: […] (SEQ ID NO:60)). The primers were designed using Primer Express 2.0 (Applied Biosystems). Using HPRT as reference, the ΔCt method was used to calculate relative gene expression. One-way ANOVA was preformed, as well as Dunnett's multiple comparison post hoc test with a p≦0.01 selected as the level of significance.
Total RNA was isolated with Nucleospin RNA II kits (Macherey-Nagel, Bethlehem, Pa.), followed by DNase digestion. cDNA was synthesized from 1 μg RNA using Goscript transcriptase (Promega), and subjected to real-time PCR with gene-specific primers for HPRT, TNF-α, IL-1β, IFNβ, and RANTES on H7900 ABI system using Fast SYBR Green master mix (Applied Biosystems, Foster City, Calif.).
To evaluate peptide-inhibitory activities, we first measured LPS-induced cytokine mRNA expression. […] […] Decoy peptide TM4 is derived from the BB loop of TRAM TIR; we previously identified this peptide as an effective TLR4 inhibitor (19).
For orientation: Quantitative PCR measures a nucleic acid by following its amplification.

The test system of data set [3] is TLR4. In words: Inhibition of TLR4 signaling in thioglycollate-elicited mouse macrophages (effective concentration, overall inhibitory activity). In kind it is cell-based. The settings on record: TLR4 pathway; thioglycollate-elicited mouse macrophages. Here is the method:
as §1
TIRAP/Mal functions to facilitate MyD88 recruitment to the activated TLR4 and TLR2, presumably through a simultaneous interaction with receptor and MyD88 TIR domains. Therefore, multiple TIR:TIR interaction sites are expected in TIRAP TIR. The decoy peptide approach was used to obtain leads on the functional protein-protein interfaces within TIRAP/Mal, a TLR adapter protein. To this end, eleven TIRAP TIR-derived decoy peptides were designed to be structurally homologous to the TLR4 TIR-derived decoy peptides used previously (1), so that each peptide represents a non-fragmented patch of the TIRAP TIR surface, with the entire domain encompassed by the set of peptides. The TIRAP TIR-derived decoy peptides were synthesized in tandem with the cell-permeating sequence of Antennapedia homeodomain (21) and each peptide was tested for the ability to inhibit TLR4 and TLR2 signaling in primary mouse macrophages. Peptide sequences and the structural regions they represent are shown in reference (30).
C57BL/6J mice were obtained from The Jackson Laboratory (BarHarbor, Me.). Harvesting, culturing, and stimulation of peritoneal macrophages were described in previous publications (1, 18, 19). Escherichia coli K235 LPS (34) was used at the final concentration of 100 ng/ml. The 2,3-bis(palmitoyloxy)-(2-RS)-propyl-N-palmitoyl-(R)-Cys-Ser-Lys4-OH (P3C) and S[2,3-bis(palmitoyloxy)-(2-RS)-propyl]-[R]-Cys-Ser-Lys4-OH (P2C) (EMC Microcollections, Tubingen, Germany) were used at 500 and 50 ng/ml, respectively. Oligonucleotide (ODN) 1668 and low m.w. polyinosinic-polycytidylic acid [poly(I:C)] in complex with LyoVec were obtained from InvivoGen; these agonists were used at 2.5 μM and 400 ng/ml, respectively.

In data set [4] the test system is TLR4. In words: LPS-induced MAPK (ERK, JNK, p38) activation in mouse macrophages (Western analysis). In kind it is cell-based. The procedure:
Cellular protein extracts were isolated by addition of 240 μL per well cold lysate buffer (20 mM Tris, 50 mM NaCl, 1.5 mM MgCl2, 2 mM EDTA, 10 mM NaF, 2 Mm DTT, 1 mM Na3VO4, 1% Triton). Cells were incubated with lysis solution for 30 min on agitator at 4° C. Lysate was then collected and centrifuged at 14,000 g for 10 minutes at 4° C. After quantification using BioRad protein assay, protein samples were added to Laemmli buffer and then boiled for 10 min. Samples were then resolved by SDS-10% PAGE in Tris/glycine/SDS buffer (25 mM Tris, 250 mM glycine, 0.1% SDS), and transferred onto Immobilon P transfer membranes (Millipore, Bedford, Mass.) (100 V, 1.5 h, 4° C.). Membranes were blocked for 1 h in TBS-T (20 mM Tris-HCl, 150 mM NaCl, 0.1% Tween 20) containing 5% nonfat milk, then probed for overnight at 4° C. with the respective antibodies (Abs) (dilution 1:1000 in TBS-T with 2% BSA). After washing in TBS-T, membranes were incubated with secondary HRP-conjugated, donkey anti-rabbit IgG (1:10,000 dilution in TBS-T with 5% nonfat milk) for 1 h at room temperature. Membranes washed five times in TBS-T before development with ECL reagents (GE Healthcare) according to manufacturer's directions.
HEK293T cells were transfected with indicated plasmids using Superfect Transfection Reagent (Qiagen). Twenty-four hours posttransfection, the cells were lysed using the buffer containing 20 mM HEPES (pH 7.4), 150 mM NaCl, 10 mM NaF, 2 mM Na3VO4, 1 mM EDTA, 1 mM EGTA, 0.5% Triton X-100, 0.1 M DTT, 1 mM PMSF, and protease inhibitor mixture (Roche, Indianapolis, Ind.). Rabbit Ab against phospho-ERK, phospho-JNK, MyD88 (D80F5), STAT1-Y701, total STAT1, and GAPDH were purchased from Cell Signaling Technology (Beverly, Mass.). Rabbit anti-phospho-p38 Ab was purchased from Promega (Madison, Wis.). Goat anti-TLR4 (M−16), rabbit anti-TLR4 (H-80), anti-HA-HRP (F-7), and rabbit anti-b-actin Ab were purchased from Santa Cruz Biotechnology. Mouse anti-Flag M2 and rabbit anti-HA Ab were from Sigma-Aldrich. GFP Ab (A1122) was from Invitrogen. Protein was quantified using Bio-Rad protein quantification kit. Equal amount of protein was loaded and analyzed by 10% SDS-PAGE and immunoblotting. The cell extracts containing equal amount of protein were incubated with 1 μg Ab for 2 h, followed by 4-h incubation with 25 μl protein G agarose beads (Roche); the beads were then washed four times with lysis buffer, boiled in […] sample loading buffer, and analyzed by immunoblotting.
We next examined whether TRAM peptides inhibit the TLR4-mediated p38, ERK, and JNK MAPK activation. Murine macrophages pretreated with peptides for 30 min were challenged with LPS. Cell lysates were collected 30 min post-stimulation and analyzed for MAPK phosphorylation by Western analysis. Consistent with peptide effects on steady-state mRNA, both TM4 and TM6 inhibited activation of all three MAPKs (FIG. 5C). The inhibition of MAPKs by TM4 or TM6 was long lasting; it persisted for at least 1 h after LPS stimulation (data not shown). To characterize further the effects of TRAM peptides on MAPKs, murine macrophages were treated with TRAM peptides, but not challenged by LPS.

Data set [5] relates to TLR4. In words: LPS-induced STAT1-Y701 phosphorylation in macrophages (immunoblotting). In kind it is cell-based, mouse. The settings on record: 2 h after LPS. (In general: Immunoblotting shows a protein as a band on a membrane.)
The test system of data set [6] is TLR4. Kind of data set: LPS-induced cytokine secretion by mouse macrophages (ELISA/multiplex). The settings on record: 5 or 20 μM peptide; LPS 100 ng/ml; supernatants 24 h. In kind it is cell-based. Here is the method: Cytokine secretion was measured in supernatant samples collected at 6 or 24 h time points and stored at −80° C. Samples were analyzed by a multiplex assay at the University of Maryland Baltimore Cytokine Core Facility using a Luminex 100 reader and Softmax Pro software, or by ELISA kits for mouse IL-6 or TNF-α from BioLegend (San Diego, Calif.) and LT-4000 microplate reader.
A total of 2×10^6 cells was plated in 12-well plates and treated with peptides for 30 min prior to LPS stimulation. TNF-α, IL-1β, IL-6, and IFN-β were measured using ELISA kits from BioLegend (San Diego, Calif.), as recommended by the manufacturer.
Background: ELISA stands for enzyme-linked immunosorbent assay.

The test system of data set [7] is TLR4. The settings on record: from references (1, 22); cited from earlier work.

No end group written: not given here.

Consider RQIKIWFQNRRMKWKKIVFAEMPCGRLHLQ [TM4], for which, in data set [1], the “Cell viability (MTT)” value was “Neither inhibitory peptide affected cell viability in a significant way”.
For the sequence RQIKIWFQNRRMKWKKCEEFQVPGRGELH [TF4], the “LPS-induced (TLR4-mediated) cytokine mRNA expression” value in the data set with TLR4 [2] (5 or 20 μM peptide 30 min before LPS, 1 or 5 h) is recorded as “inhibit”. In addition, in the data set on TLR4 [3], the Effective conc. was determined as 20 µM. Also, in the data set on TLR4 [4] (lysates 30 min after LPS), the “LPS-induced p38, ERK, and JNK MAPK activation” value was “inhibit”. The “LPS-induced STAT1-Y701 phosphorylation” value with TLR4 [5] is on record as “inhibit”. The LPS-induced cytokine secretion result with TLR4 [6] is “inhibit”.
With RQIKIWFQNRRMKWKKENFLRDTWCNFQFY [TM6], the “Cell viability (MTT)” value in data set [1] is reported as “Neither inhibitory peptide affected cell viability in a significant way”.
Consider “RQIKIWFQNRRMKWKKLHYRDFIPGVAIAA [4R4/4BB]”, for which the “LPS-induced cytokine mRNA induction” value with TLR4 [2] (peritoneal macrophages (FIG. 14A)) is listed as “potently inhibit”. This sequence also came in with an Effective conc. in the data set with TLR4 [3] of 20 µM. Further, in the data set with TLR4 [7], the “Inhibition of TLR4 (overall)” value is “quite potent inhibitor”. Also, the “LPS-induced activation of ERK and JNK MAPKs” value in the data set with TLR4 [4] (peritoneal macrophages (FIG. 14B)) is “potently inhibit”.

The record behind these values is patent publication US20130203649A1, “INHIBITORS OF TLR SIGNALING BY TARGETING TIR DOMAIN INTERFACES” (UNIVERSITY OF MARYLAND, BALTIMORE, priority 2012, published 2013).
